Series [1] can be described thus: N-acetylcysteine treatment after paracetamol overdose (Prescott regimen). The settings on record: 8000 mg paracetamol (160 mg/kg) ingested; e.g. elevated transaminases. Format: in vivo, human. The protocol: (§1) A person with an estimated body weight of 50 kg ingested a total amount of 3150 mg agomelatine (63 mg/kg), 4000 mg paroxetine (80 mg/kg), 8000 mg paracetamol (160 mg/kg), 5000 mg acetylsalicylic acid (100 mg/kg), 1000 mg caffeine (20 mg/kg), and 25,200 mg ibuprofen (504 mg/kg) in suicidal intent (total of 336 pills). […] The patient was reported to be on regular paroxetine therapy. However, the exact dosage and frequency of intake were unknown. […] Owing to reported paracetamol overdose, N-acetylcysteine was administered (Fig. 1) according to the regimen described by Prescott et al.. All other medication—except for paroxetine—was deemed to be no longer clinically relevant by the contacted poison information center, based on the time elapsed since ingestion. […] The patient was then transferred to our tertiary care institution for specialized ARDS treatment. […] Therefore, a symptomatic therapy with olanzapine (10 mg/day) was started. Analgosedation with sufentanil was switched to hydromorphone to prevent further aggregation of serotonin, and corticosteroids were administered in an attempt to enhance paroxetine elimination by CYP2D6 induction. […] Once vv-ECMO was initiated, CytoSorb™ hemoadsorption could easily be added in an attempt to eliminate paroxetine.

The nature of series [2]: Serum paroxetine level monitoring after self-poisoning. The class given is in vivo, human.
Text: However, the exact dosage and frequency of intake were unknown. […] As no severe life-threatening serotonin syndrome symptoms were present at that point and the patient´s condition kept improving, the decision for supportive treatment was made. […] Once vv-ECMO was initiated, CytoSorb™ hemoadsorption could easily be added in an attempt to eliminate paroxetine.
Series [3] in a line: Clinical course of paroxetine overdose in multidrug self-poisoning (case report). Format: in vivo, human. The method, then:
as §1

The conditions of series [4]: indicated value of the test laboratory; ref test laboratory; cited from earlier work.
The conditions of series [5]: cited from earlier work.
For series [6] the following is noted: cited from earlier work. The source holds these as a separate data set.
Setting [7] is: during serotonin syndrome attributed to paroxetine overdose.

The structures appear in SMILES notation. Like-named read-outs stand apart in the source and are kept apart here. Some results are limits rather than exact numbers.

`CC(=O)N[C@@H](CS)C(=O)O` [acetylcysteine, N-acetylcysteine]: the “development of paracetamol poisoning after treatment” value in series [1] is on record as “no clinically relevant paracetamol poisoning”.
On to `Fc1ccc([C@@H]2CCNC[C@H]2COc2ccc3c(c2)OCO3)cc1` [paroxetine], for which, in series [2] (after ingestion of 4000 mg paroxetine), the “time with paroxetine levels in the lethal dose range” value is 20 days. Besides, in series [2] (human, serum, oral, day 8 after ingestion of 4000 mg paroxetine (80 mg/kg), multidrug poisoning, one patient), the concentration at 8 day worked out at 3410 ng/mL. Moreover, in series [3] (4000 mg paroxetine with co-ingested drugs, person), the “clinical toxicity after overdose” value is recorded as “severe serotonin syndrome complicated by acute respiratory distress syndrome”. Besides, the outcome in series [3] (4000 mg paroxetine, despite CytoSorb, corticosteroids, olanzapine 10 mg/day and intensive care) is listed as “the patient died on day 20 postingestion”. Moreover, the “onset of serotonin syndrome (day after ingestion)” value in series [3] (4000 mg paroxetine, persisted until death on day 20) turned out to be 5 days. Further, in series [3] (setting [7]), the recurrent fever entry is “up to 39.5 °C” and the tachycardia entry is “up to 142 bpm”. For the same compound, the hypotension entry in series [3] (during serotonin syndrome attributed to paroxetine overdose, printed 'hypotension up to', catecholamines needed) is “up to 82/52”. In series [4], the “critical value of paroxetine level” value is more than 120 ng/mL and the “therapeutic range of paroxetine level” value is 20 to 65 ng/mL. For the same compound, the plasma protein binding in series [5] (at therapeutic doses) was 95%. In series [5], the therapeutic half-life is 7 to 37 h and the volume of distribution is 17 L/kg. In series [5] (poisoning with a dose of 1 g paroxetine), the “prolonged half-life in poisoning” value is 220 h. Further, the “prolonged half-life in poisoning” value in series [5] (poisoning with a dose of 2 g paroxetine) was 190 h. For the same compound, the “complication of poisoning in a previous case report” value in series [6] (paroxetine poisoning) was “severe ARDS”. In addition, the “adverse event with therapeutic intake in one patient” value in series [6] (stopped after paroxetine discontinuation) is given as “recurrent ARDS”.
Turning to `COc1ccc(C(CN(C)C)C2(O)CCCCC2)cc1` (stereo not shown) [venlafaxine], the “adverse events after intentional overdose in a case report” value in series [6] was “tremors, muscle rigidity, and sustained ankle clonus, followed by ARDS”.

The record behind these values is publication PMC12519824, “Fatal outcome of severe serotonin syndrome and acute respiratory distress syndrome after self-poisoning with paroxetine: a case report” (Journal of Medical Case Reports, 2025).
